Measured values reported in ChEMBL document CHEMBL1130359, “In vivo immunosuppressive activity of some cyclolignans” (Bioorg Med Chem Lett, 1997).
In brackets after ≈: the same amount, converted by molar mass.

Tests used:
Mus musculus [1] = assay: Tested in vivo for immunosuppressive activity in mouse using graft vs Host rejection technique(GVHR); body weight at a dose of 15.0 mg/kg; format: functional
Mus musculus [2] = assay: Tested in vivo for immunosuppressive activity in mouse using allogenic skin grafting technique(SG); graft survival relative to cyclophosphamide at a dose of 1.5 mg/kg; format: functional
Mus musculus [3] = assay: Tested in vivo for immunosuppressive activity in mouse using allogenic skin grafting technique(SG); weight lost at a dose of 1.5 mg/kg on day 5; format: functional
[4] = Tested in vitro for cytotoxicity against […](LcV) in cells; format: functional
Mus musculus [5] = assay: Tested in vivo for immunosuppressive activity in mouse using allogenic skin grafting technique(SG); mean graft survival at a dose of 1.5 mg/kg; format: functional
Mus musculus [6] = assay: Tested in vivo for immunosuppressive activity in mouse using allogenic skin grafting technique(SG); weight at a dose of 1.5 mg/kg; format: functional
[7] = Non-cytotoxic IMS activity (ratio LcV/MLR) was determined; format: functional
Mus musculus [8] = assay: Tested in vivo for immunosuppressive activity in mouse using graft vs Host rejection technique(GVHR); spleen weight normalized to D8 body weight at a dose of 1.5 mg/kg; format: functional
Mus musculus [9] = assay: Tested in vivo for immunosuppressive activity in mouse using allogenic skin grafting technique(SG); weight lost at a dose of 0.15 mg/kg; format: functional
Mus musculus [10] = assay: Tested in vivo for immunosuppressive activity in mouse using graft vs Host rejection technique(GVHR);% suppression at a dose of 1.5 mg/kg; format: functional
Mus musculus [11] = assay: Tested in vivo for immunosuppressive activity in mouse using graft vs Host rejection technique(GVHR); weight change at a dose of 15.0 mg/kg on day 5; format: functional
Mus musculus [12] = assay: Tested in vivo for immunosuppressive activity in mouse using graft vs Host rejection technique(GVHR); spleen weight normalized to D8 body weight at a dose of 15.0 mg/kg; format: functional
Mus musculus [13] = assay: Tested in vivo for immunosuppressive activity in mouse using graft vs Host rejection technique(GVHR); spleen index at a dose of 1.5 mg/kg; format: functional
Mus musculus [14] = assay: Tested in vivo for immunosuppressive activity in mouse using allogenic skin grafting technique(SG); graft survival relative to cyclophosphamide at a dose of 0.15 mg/kg; format: functional
Mus musculus [15] = species: Mus musculus; assay: Tested for immunosuppressive activity in mouse using allogenic MLR method; format: functional, organism-based
Mus musculus [16] = assay: Tested in vivo for immunosuppressive activity in mouse using allogenic skin grafting technique(SG); mean graft survival at a dose of 0.15 mg/kg; format: functional
Mus musculus [17] = assay: Tested in vivo for immunosuppressive activity in mouse using graft vs Host rejection technique(GVHR); spleen index at a dose of 0.15 mg/kg; format: functional
Mus musculus [18] = assay: Tested in vivo for immunosuppressive activity in mouse using allogenic skin grafting technique(SG); weight at a dose of 0.15 mg/kg; format: functional
Mus musculus [19] = assay: Tested in vivo for immunosuppressive activity in mouse using graft vs Host rejection technique(GVHR); spleen index at a dose of 15.0 mg/kg; format: functional
Mus musculus [20] = assay: Tested in vivo for immunosuppressive activity in mouse using graft vs Host rejection technique(GVHR); weight change at a dose of 0.15 mg/kg on day 5; format: functional
Mus musculus [21] = assay: Tested in vivo for immunosuppressive activity in mouse using graft vs Host rejection technique(GVHR); weight at a dose of 15 mg/kg; format: functional
Mus musculus [22] = assay: Tested in vivo for immunosuppressive activity in mouse using graft vs Host rejection technique(GVHR); spleen weight normalized to D8 body weight at a dose of 0.15 mg/kg; format: functional
Mus musculus [23] = assay: Tested in vivo for immunosuppressive activity in mouse using graft vs Host rejection technique(GVHR); % suppression at a dose of 15.0 mg/kg; format: functional
Mus musculus [24] = assay: Tested in vivo for immunosuppressive activity in mouse using graft vs Host rejection technique(GVHR); body weight at a dose of 1.5 mg/kg; format: functional
Mus musculus [25] = assay: Tested in vivo for immunosuppressive activity in mouse using allogenic skin grafting technique(SG); mean graft survival at a dose of 15 mg/kg; format: functional
Mus musculus [26] = assay: Tested in vivo for immunosuppressive activity in mouse using graft vs Host rejection technique(GVHR); weight change at a dose of 1.5 mg/kg on day 5; format: functional
Mus musculus [27] = assay: Tested in vivo for immunosuppressive activity in mouse using graft vs Host rejection technique(GVHR); body weight at a dose of 0.15 mg/kg; format: functional
Mus musculus [28] = assay: Tested in vivo for immunosuppressive activity in mouse using graft vs. Host rejection technique(GVHR); % suppression at a dose of 15.0 mg/kg; format: functional
Mus musculus [29] = assay: Tested in vivo for immunosuppressive activity in mouse using graft vs. Host rejection technique(GVHR); body weight at a dose of 15.0 mg/kg; format: functional
Mus musculus [30] = assay: Tested in vivo for immunosuppressive activity in mouse using graft vs. Host rejection technique(GVHR); % suppression at a dose of 15 mg/kg; format: functional
Mus musculus [31] = assay: Tested in vivo for immunosuppressive activity in mouse using graft vs. Host rejection technique(GVHR); spleen index at a dose of 1.5 mg/kg; format: functional
Mus musculus [32] = assay: Tested in vivo for immunosuppressive activity in mouse using graft vs. Host rejection technique(GVHR); % suppression at a dose of 0.15 mg/kg; format: functional
Mus musculus [33] = assay: Tested in vivo for immunosuppressive activity in mouse using allogenic skin grafting technique(SG); weight lost at a dose of 1.5 mg/kg; format: functional
Mus musculus [34] = assay: Tested in vivo for immunosuppressive activity in mouse using graft vs. Host rejection technique(GVHR); weight change at a dose of 0.15 mg/kg; format: functional
Mus musculus [35] = assay: Tested in vivo for immunosuppressive activity in mouse using allogenic skin grafting technique(SG); mean graft survival at a dose of 15.0 mg/kg; format: functional
Mus musculus [36] = assay: Tested in vivo for immunosuppressive activity in mouse using graft vs. Host rejection technique(GVHR); % suppression at a dose of 1.5 mg/kg; format: functional
Mus musculus [37] = assay: Tested in vivo for immunosuppressive activity in mouse using graft vs. Host rejection technique(GVHR); spleen weight normalized to D8 body weight at a dose of 1.5 mg/kg; format: functional
Mus musculus [38] = assay: Tested in vivo for immunosuppressive activity in mouse using graft vs. Host rejection technique(GVHR); weight change at a dose of 1.5 mg/kg; format: functional
Mus musculus [39] = assay: Tested in vivo for immunosuppressive activity in mouse using graft vs. Host rejection technique(GVHR); body weight at a dose of 1.5 mg/kg; format: functional
Mus musculus [40] = assay: Tested in vivo for immunosuppressive activity in mouse using graft vs. Host rejection technique(GVHR); spleen weight normalized to D8 body weight at a dose of 15.0 mg/kg; format: functional
Mus musculus [41] = assay: Tested in vivo for immunosuppressive activity in mouse using graft vs. Host rejection technique(GVHR); spleen index at a dose of 0.15 mg/kg; format: functional
Mus musculus [42] = assay: Tested in vivo for immunosuppressive activity in mouse using graft vs. Host rejection technique(GVHR); weight change at a dose of 15.0 mg/kg; format: functional
Mus musculus [43] = assay: Tested in vivo for immunosuppressive activity in mouse using graft vs. Host rejection technique(GVHR); spleen weight normalized to D8 body weight at a dose of 0.15 mg/kg; format: functional
Mus musculus [44] = assay: Tested in vivo for immunosuppressive activity in mouse using graft vs. Host rejection technique(GVHR); spleen index at a dose of 15.0 mg/kg; format: functional
Mus musculus [45] = assay: Tested in vivo for immunosuppressive activity in mouse using allogenic skin grafting technique(SG); weight at a dose of 15 mg/kg; format: functional
Mus musculus [46] = assay: Tested in vivo for immunosuppressive activity in mouse using allogenic skin grafting technique(SG); graft survival relative to cyclophosphamide at a dose of 15.0 mg/kg; format: functional
Mus musculus [47] = assay: Tested in vivo for immunosuppressive activity in mouse using graft vs. Host rejection technique(GVHR); body weight at a dose of 0.15 mg/kg; format: functional

SMILES: COc1cc([C@@H]2c3cc4c(cc3C3=NOC[C@H]3[C@@H]2C(=O)O)OCO4)cc(OC)c1OC
- Body weight (Mus musculus [1]): 16.5 g
- graft survival (Mus musculus [2]): 0.69 days
- Body weight (Mus musculus [3]): 1.7 g
- Cytotoxicity [4]: >30 µg/mL
- Mean graft survival (Mus musculus [5]): 6.8 days
- Body weight (Mus musculus [6]): 18.7 g
- Ratio [7]: >3333
- Spleen weight (Mus musculus [8]): 4.35 g
- Body weight (Mus musculus [9]): 0.5 g
- Activity (Mus musculus [10]): 48%
- Weight change (Mus musculus [11]): 1.8%
- Spleen weight (Mus musculus [12]): 6.34 g
- SI (Mus musculus [13]): 0.87
- graft survival (Mus musculus [14]): 1.14 days
- IC50 (Mus musculus [15]): < 9 ng/mL
- Mean graft survival (Mus musculus [16]): 11.2 days
- SI (Mus musculus [17]): 1.14
- Body weight (Mus musculus [18]): 19 g
- SI (Mus musculus [19]): 1.27
- Weight change (Mus musculus [20]): 3.1%
- Body weight (Mus musculus [21]): 17.8 g
- Spleen weight (Mus musculus [22]): 5.7 g
- Activity (Mus musculus [23]): 148%
- Body weight (Mus musculus [24]): 16 g
- Mean graft survival (Mus musculus [25]): 0.9 days
- Weight change (Mus musculus [26]): 0%
- Body weight (Mus musculus [27]): 15.8 g

SMILES: COc1cc([C@@H]2c3cc4c(cc3[C@@H](O)[C@H]3COC(=O)[C@H]23)OCO4)cc(OC)c1OC [EPIPODOPHYLLOTOXIN]
- Cytotoxicity [4]: >65 µg/mL
- Ratio [7]: >284
- IC50 (Mus musculus [15]): 229 ng/mL (≈ 553 nM)

SMILES: COc1cc([C@@H]2c3cc(O)c(O)cc3[C@@H](O)[C@H]3COC(=O)[C@H]23)cc(OC)c1OC
- graft survival (Mus musculus [2]): 1.12 days
- Activity (Mus musculus [28]): 100%
- Body weight (Mus musculus [29]): 16.3 g
- Cytotoxicity [4]: >35 µg/mL
- Mean graft survival (Mus musculus [5]): 11 days
- Body weight (Mus musculus [30]): 18.2 g
- SI (Mus musculus [31]): 0.88
- Activity (Mus musculus [32]): 170%
- Body weight (Mus musculus [33]): 1 g
- Body weight (Mus musculus [6]): 18.5 g
- Ratio [7]: >23333333
- Weight change (Mus musculus [34]): 0%
- Body weight (Mus musculus [9]): 0.6 g
- Mean graft survival (Mus musculus [35]): 9.7 days
- Activity (Mus musculus [36]): 144%
- Spleen weight (Mus musculus [37]): 4.4 g
- Weight change (Mus musculus [38]): 1.9%
- Body weight (Mus musculus [39]): 15.8 g
- graft survival (Mus musculus [14]): 1.12 days
- IC50 (Mus musculus [15]): 0.015 ng/mL (≈ 0.0373 nM)
- Spleen weight (Mus musculus [40]): 5.02 g
- Mean graft survival (Mus musculus [16]): 11 days
- Body weight (Mus musculus [18]): 18.3 g
- SI (Mus musculus [41]): 0.81
- Weight change (Mus musculus [42]): -3%
- Spleen weight (Mus musculus [43]): 4.05 g
- SI (Mus musculus [44]): 1
- Body weight (Mus musculus [45]): 0.2 g
- graft survival (Mus musculus [46]): 0.99 days
- Body weight (Mus musculus [47]): 17 g

SMILES: COc1cc([C@@H]2c3cc4c(cc3[C@H](O)[C@H]3COC(=O)[C@H]23)OCO4)cc(OC)c1OC [PODOFILOX]
- Cytotoxicity [4]: 280 µg/mL
- Ratio [7]: >2187
- IC50 (Mus musculus [15]): < 128 ng/mL

SMILES: COc1cc([C@@H]2c3cc(O)c(O)cc3C[C@H]3COC(=O)[C@@H]32)cc(OC)c1OC
- Cytotoxicity [4]: >25 µg/mL
- Ratio [7]: >43
- IC50 (Mus musculus [15]): 585 ng/mL (≈ 1510 nM)
